From paper PMC7829355, “Antimicrobial Activity of Lipopeptide Biosurfactants Against Foodborne Pathogen and Food Spoilage Microorganisms and Their Cytotoxicity” (Frontiers in Microbiology, 2021)
In brackets after ≈: the same amount, converted by molar mass. Several values for one entry are separate records, joined by “and”; a condition that tells them apart may be missing. Equal values may be shown once. Read-outs that look alike come from different tables or passages of the source.

Assays:
Candida krusei ATCC 6258 = test: Antifungal susceptibility against yeast, broth microdilution in RPMI-1640; type: cell-based; conditions: for MIC: Pichia kudriavzevii, ATCC6258, C. krusei, RPMI-1640 liquid media
Experimental: The antifungal susceptibility test against yeasts was performed according to the broth microdilution method, as described previously ([Urbañski et al., 2002]; [Schwalbe et al., 2007]). Candida krusei ATCC 6258 was used as the quality control organism, to verify that antifungal concentrations were prepared properly. In addition, amphotericin B, an effective antifungal antibiotic produced by Streptomyces nodosus and part of the WHO List (World Health Organization) of Essential Medicines, was used as a reference compound. The test medium used was RPMI-1640 (with glutamine, without bicarbonate and with a pH indicator) broth with [3-(N-morpholino)]-propanesulfonic acid (MOPS) buffer. All tests were performed in U-shaped 96-well plates. Three technical replicates of each assay were carried out on the same day with the same culture and chemical compound with the aforementioned experiment repeated also in triplicate on different days using different cultures (biological replicates) resulting in a total of nine replicates for each assay. The yeasts tested were Zygosaccharomyces bailli NCYC 464 and Debaryomyces hansenii NCYC 102.

Paecilomyces variotii = test: Antifungal susceptibility against filamentous fungi, broth microdilution; type: cell-based
Experimental: (§1) In this set of experiments, Candida krusei ATCC 6258 and amphotericin B were used to perform quality control tests for validation. As mentioned above, the test medium used was RPMI-1640 broth with MOPS buffer. Tests were performed in U-shaped 96-well plates in triplicates and the OD450nm was recorded after 7 days of incubation at 30°C. The fungi tested were Rhizopus stolonifer IMI 017314 and Paecilomyces variotii and Byssochamys fulva IMI 040021.

[1] = test system: Rhizopus stolonifer IMI 017314; test: as above; type: cell-based
Experimental: as §1

[2] = test system: Byssochamys fulva IMI 040021; test: as above; type: cell-based, Byssochlamys fulva
Experimental: as §1

[3] = test system: Salmonella enterica NCTC 5188; test: Antibacterial susceptibility, broth microdilution MIC; type: cell-based; conditions: NCTC5188, S. enterica, 24 h
Bacillus cereus MR59 = test: as above; type: cell-based; conditions: 24 h
Experimental: (§2) The antibacterial susceptibility testing was performed following the broth microdilution methodology, as described previously ([Schwalbe et al., 2007]), against both Gram-negative and Gram-positive foodborne pathogens and spoilage bacteria. The bacteria used were: Pseudomonas aeruginosa NCTC 10332, Salmonella enterica NCTC 5188, Escherichia coli K-12, Bacillus cereus MR59, Listeria monocytogenes 10403S, Carnobacterium divergens NCFB 2763, Leuconostoc mesenteroides NCIMB 08023, and Brochothrix thermosphacta NCDO 1676.
(§3) Two-fold dilutions were performed and 100 μL of each dilution was placed in each column of a flat bottomed 96-well plate. One column of the plate contained only the growth medium and served as the positive control while in another column contained 200 μL of the growth medium with the highest concentration of the lipopeptide tested (1,000 mg/L) and served as the negative control. Apart from the column that served as the negative control, the rest of the wells were inoculated with 100 μL of the bacterial culture tested. For the bacterial suspension preparation, cultures were incubated overnight in the appropriate medium (MHB or TSB). Bacterial density was adjusted to 0.5 McFarland and suspensions were subsequently diluted 1000 times using the growth test medium. The 96-well plates were then incubated at either 30or 37°C, depending on the optimal growth temperature of each microorganism, for 24 h and the OD620nm was assessed. The minimum inhibitory concentration (MIC) was defined as the lowest concentration of the antimicrobial agent tested that prevented any discernible growth after 24 h incubation.

[4] = test system: Brochothrix thermosphacta NCDO 1676; test: as above; type: cell-based; conditions: food preservatives, 24 h
Experimental: as §2, §3

[5] = test system: Carnobacterium divergens NCFB 2763; test: as above; type: cell-based; conditions: C. divergens
Experimental: as §2, §3

Escherichia coli K-12 = test: as above; type: cell-based; conditions: E. coli K-12, broth microdilution, 24 h
Experimental: as §2, §3

[6] = test system: Leuconostoc mesenteroides NCIMB 08023; test: as above; type: cell-based; conditions: 24 h
Experimental: as §2, §3

[7] = test system: Listeria monocytogenes 10403S; test: as above; type: cell-based; conditions: L. monocytogenes, 24 h
Experimental: as §2, §3

[8] = test system: Pseudomonas aeruginosa NCTC 10332; test: as above; type: cell-based; conditions: 24 h
Experimental: as §2, §3

Gram-positive bacteria = test: Antibacterial broth microdilution MIC, summary over Gram-positive strains; type: cell-based; conditions: range over the Gram-positive strains; read-out: MICs for Gram-positive bacteria
Caco-2 cells [9] = test system: Caco-2 cells
Caco-2 cells [10] = conditions: cited from earlier work; for IC50 cytotoxicity group, Caco cells: published IC50, MTT, ref literature review and EFSA database (Figure 4); for IC50: Caco-2 cells, ref Zhao et al.
Vero cells = conditions: cited from earlier work; for IC50 cytotoxicity group, Vero cells: published IC50, MTT, ref literature review and EFSA database (Figure 4)
Vero SF cells = test: Cytotoxicity assay (CCK8, WST-8)
Experimental: The Vero SF cells line is recommended by EFSA to assess the toxigenic potential of Bacillus species used in animal nutrition ([EFSA, 2014]). Cells were cultured in Dulbecco’s modified Eagle’s medium supplemented with 10% FCS, 1% glutamine, and 1% penicillin-streptomycin. After 48 h, cell culture medium was replaced by fresh medium containing the tested compounds in various concentrations.
Cytotoxicity was determined through a commercial kit from SIGMA Aldrich (Saint-Louis, United States) named Cell Counting kit 8 (CCK8). This test is based on the water-soluble tetrazolium salt (WST-8) reduction by the dehydrogenase of the living cells only inducing the production of a yellow color formazan dye which is directly proportional to the number of cells. Twenty-four hours after addition the compounds, the WST-8 was added to the medium (100 μL/mL). After 2h incubation, absorption at […] was measured in a microplate-reader (Microplates reader SpectraMax® iD3, Molecular Devices, San Jose, United States) and values were expressed as percent of control.
As explained above, since some of the lipopeptides have limited solubility in aqueous solutions, prior to their cytotoxicity testing, the effect of the DMSO at the levels used to solubilize the lipopeptides, was assessed. […]

R. stolonifer = test system: R. stolonifer; design: method as in Liu et al., 2014; conditions: ref Liu et al., 2014; cited from earlier work
Escherichia coli = test system: Escherichia coli; design: method as in Dhanarajan et al., 2016; conditions: purified surfactin homologues; ref Dhanarajan et al., 2016; cited from earlier work
C. divergens = test: Nisin-lipopeptide combinations, broth microdilution checkerboard panel; type: cell-based, Carnobacterium divergens; conditions: regardless of the surfactin concentrations; data not shown
Description: For testing the antibacterial activity by combining nisin and lipopeptides, the broth microdilution assay described above was used, following the broth microdilution checkerboard panel ([Schwalbe et al., 2007]).

Caco-2 cells [11] = test: Cytotoxicity assay (CCK8, WST-8); conditions: estimated IC50 of this study, 24 h of contact
[12] = nisin alone, lipopeptide alone, or lipopeptide with nisin at fixed 10 mg/L

`C[C@@H]1[C@H](O)[C@@H](C)/C=C/C=C/C=C/C=C/C=C/C=C/C=C/[C@H](O[C@@H]2O[C@H](C)[C@@H](O)[C@H](N)[C@@H]2O)C[C@@H]2O[C@](O)(C[C@@H](O)C[C@@H](O)[C@H](O)CC[C@@H](O)C[C@@H](O)CC(=O)O[C@H]1C)C[C@H](O)[C@H]2C(=O)O` [Amphotericin B, amphotericin B] gave an MIC (Candida krusei ATCC 6258; 24 h growth, read-out: MIC (mg/L) 24h) of 0.5 mg/L (≈ 0.541 µM), an MIC (Candida krusei ATCC 6258; 48 h growth, read-out: MIC (mg/L) 48h) of 0.5 mg/L (≈ 0.541 µM) and an MIC (Paecilomyces variotii; Paecilomyces variotii, 168 h, 7 days of growth, RPMI-1640 liquid media, read-out: P. variotii MIC) of 0.06 µg/mL (≈ 0.0649 µM). For the same compound, the MIC ([1]; Rhizopus stolonifer, IMI017314, 168 h, 7 days of growth, RPMI-1640 liquid media, read-out: R. stolonifer MIC) was 0.5 µg/mL (≈ 0.541 µM) and the MIC ([2]; Paecilomyces fulvus, IMI040021, 168 h, 7 days of growth, RPMI-1640 liquid media, read-out: B. fulva MIC) was 0.06 µg/mL (≈ 0.0649 µM).
In the case of `O=C(O)CN(CCN(CC(=O)O)CC(=O)O)CC(=O)O` [EDTA, ethylenediaminetetraacetic acid], the MIC [3] is reported as 14600 µg/mL (≈ 50000 µM), the MIC (Bacillus cereus MR59; Bacillus cereus, MR59, B. cereus, read-out: MIC) is reported as 228 µg/mL (≈ 780 µM) and the MIC ([4]; Brochothrix thermosphacta, NCDO1676, B. thermosphacta, read-out: MIC) is reported as 114 µg/mL (≈ 390 µM). It also gave an MIC ([5]; Carnobacterium divergens, NCFB2763, food preservatives, broth microdilution, 24 h, read-out: MIC) of 55.6 µg/mL, an MIC (Escherichia coli K-12; Escherichia coli, K12, read-out: MIC) of 14600 µg/mL (≈ 50000 µM) and an MIC ([6]; Leuconostoc mesenteroides, NCIMB08023, L. mesenteroides, read-out: MIC) of 114 µg/mL (≈ 390 µM). For the same compound, the MIC ([7]; Listeria monocytogenes, 10403S, read-out: MIC) was 228 µg/mL (≈ 780 µM), the MIC ([8]; Pseudomonas aeruginosa, NCTC10332, P. aeruginosa, read-out: MIC) was 7310 µg/mL (≈ 25000 µM) and the MIC (Gram-positive bacteria) was 190 µM to 780 µM and 55.6 µg/mL to 228 µg/mL.
With mycosubtilin the “cytotoxicity compared to nisin (E234)” value (Caco-2 cells [9]) was “three times less cytotoxic”.
For `C=O` [formaldehyde (E240), formaldehyde], the “IC50 cytotoxicity group, Caco cells” value (Caco-2 cells [10]) is given as “group three (group three with significant cytotoxicity with IC50 lower than 10 mg/L)” and the “IC50 cytotoxicity group, Vero cells” value (Vero cells) is given as “group 3 (group three with significant cytotoxicity with IC50 lower than 10 mg/L)”.
In the case of fengycin [Fengycin (F)], the “cytotoxicity compared to nisin (E234)” value (Vero SF cells) is reported as “less cytotoxic”.
In the case of iturin, the “concentration at which growth of R. stolonifer is inhibited” value (R. stolonifer) is listed as 100 mg/L.
For surfactin C15, the MICs (Escherichia coli) is given as 60 mg/L.
For `Cc1ccc(C(C)C)cc1O` [carvacol], the “IC50 cytotoxicity group, Caco cells” value (Caco-2 cells [10]) is given as “group 2 (group 2 with moderate cytotoxicity with IC50s between 10 and 100 mg/L)” and the “IC50 cytotoxicity group, Vero cells” value (Vero cells) is given as “group 2 (group 2 with moderate cytotoxicity with IC50s between 10 and 100 mg/L)”.
For iturin A, the IC50 (Caco-2 cells [10]; 2018) is listed as 42 µg/mL, the IC50 (Caco-2 cells [10]; 2019) is listed as 28 µg/mL and the “IC50 cytotoxicity group, Caco cells” value (Caco-2 cells [10]) is listed as “group 2 (group 2 with moderate cytotoxicity with IC50s between 10 and 100 mg/L)”. For the same compound, the IC50 (Vero cells; Vero cells, ref EFSA Panel on Additives and Products or Substances used in Animal Feed [FEEDAP], 2017) was “around 16 mg/L” and the “IC50 cytotoxicity group, Vero cells” value (Vero cells) was “group 2 (group 2 with moderate cytotoxicity with IC50s between 10 and 100 mg/L)”.
In the case of nisin, the MIC (Bacillus cereus MR59; B. cereus) is reported as 6.71 µg/mL, the MIC ([4]; B. thermosphacta) is reported as 0.10 to 0.20 µg/mL and the MIC ([5]; food preservatives, broth microdilution, 24 h) is reported as 3.35 µg/mL. It also gave an MIC ([5]; nisin) of 1000 µM, an MIC (Escherichia coli K-12) of over 107.3 µg/mL and an MIC ([6]; L. mesenteroides) of 1.68 µg/mL. The MIC [7] was 6.71 µg/mL, the MIC ([8]; P. aeruginosa) was over 107.3 µg/mL and the “Lipopeptide MIC (mg/L) C. krusei” value (Candida krusei ATCC 6258; [12]) was over 125 mg/L. For the same compound, the “Lipopeptide MIC (mg/L) P. variotii” value (Paecilomyces variotii; [12]) was over 125 mg/L, the “Lipopeptide MIC (mg/L) R. stolonifer” value [1, 12] was over 125 mg/L and the “Lipopeptide MIC (mg/L) B. fulva” value [2, 12] was over 125 mg/L. The “MIC of nisin for C. divergens when combined with surfactin” value (C. divergens) was 3.35 µg/mL, the “IC50 cytotoxicity group, Vero cells” value (Vero SF cells; estimated IC50 of this study, 24 h of contact) was “group 1 (group 1 of molecules with low cytotoxicity, IC50 above 100 mg/L)” and the “IC50 cytotoxicity group, Caco cells” value (Caco-2 cells [11]) was “group three (group three with significant cytotoxicity with IC50 lower than 10 mg/L)”.
